These results are taken from article PMC12915296 (Journal of medicinal chemistry, 2025).

The structures appear in SMILES notation. Read-outs that look alike come from different tables or passages of the source.

The target in assay [1] is rCB1 receptor (Rattus norvegicus, UniProt P20272). Kind of assay: rCB1 radioligand binding assay, [3H]CP-55,940 competition. The following applies: for increase in binding affinity for CB1 compared to lead AMG315: ratio of Ki values.
Assay [2] concerns the target T1, hCB2 receptor (Homo sapiens, UniProt P34972). Kind of assay: hCB2 radioligand binding assay, [3H]CP-55,940 competition, HEK293 membranes. The following applies: for higher affinity for CB2 than the lead compound AMG315: ratio of Ki values.
Assay [3] deals with T1, hCB2 receptor. Kind of assay: Inhibition of forskolin-stimulated cAMP accumulation, 3xHA-hCB2-CHO cells. The following applies: for Emax: read-out: hCB2 receptor cAMP Emax. Format: cell-based. (Changes in cAMP serve as a functional read-out for many G protein-coupled receptors.)
Assay [4] addresses T2, hCB1 receptor (Homo sapiens, UniProt P21554). Kind of assay: cell-based. Particulars: read-out: hCB1 receptor β-Arrestin 2 Emax.
For assay [5], the target named is T1, hCB2 receptor. The assay can be described thus: β-arrestin 2 recruitment assay. Format: cell-based. The following applies: for Emax: read-out: hCB2 receptor β-Arrestin 2 Emax.
The target of assay [6] is T2, hCB1 receptor. The assay can be described thus: cell-based. The following applies: for Emax: read-out: hCB1 receptor cAMP Emax, normalized to maximum CP-55,940 = 100.
The test system of assay [7] is Adult male CD1 mice. Kind of assay: Measurement of rectal temperature. Format: in vivo. The following applies: for body temperature vs vehicle: i.p., mice.
For assay [8], the system named is Adult male CD1 mice. The assay can be described thus: Ring test for catalepsy. Format: in vivo. The following applies: for immobility time in the ring test vs vehicle: i.p., mice, overall.
Assay [9] has as its system Adult male CD1 mice. The assay can be described thus: Tail-flick. Format: in vivo. Particulars: for tail-flick latency in the tail-immersion test vs vehicle: mice, overall. (In general: In hot-plate and tail-flick tests a longer latency is read as antinociception.)
Assay [10] deals with Adult male CD1 mice. Kind of assay: CFA-induced inflammatory pain model, mechanical paw withdrawal thresholds. Format: in vivo. Particulars: AM251 5 mg/kg i.p. alone, overall.

T2 sequence (P21554 whole entry): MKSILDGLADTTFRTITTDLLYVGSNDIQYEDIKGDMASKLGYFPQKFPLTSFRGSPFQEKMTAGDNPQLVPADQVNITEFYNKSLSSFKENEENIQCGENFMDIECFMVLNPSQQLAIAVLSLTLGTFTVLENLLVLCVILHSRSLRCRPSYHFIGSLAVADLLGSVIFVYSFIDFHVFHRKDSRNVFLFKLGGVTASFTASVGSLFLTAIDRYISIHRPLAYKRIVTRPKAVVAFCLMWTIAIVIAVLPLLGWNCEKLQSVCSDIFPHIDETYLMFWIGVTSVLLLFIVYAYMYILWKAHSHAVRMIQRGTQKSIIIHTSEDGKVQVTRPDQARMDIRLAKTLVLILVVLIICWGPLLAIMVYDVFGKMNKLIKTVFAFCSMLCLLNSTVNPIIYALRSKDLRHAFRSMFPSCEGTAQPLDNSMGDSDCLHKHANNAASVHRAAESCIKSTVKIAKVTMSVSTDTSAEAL
T1 sequence (P34972 whole entry): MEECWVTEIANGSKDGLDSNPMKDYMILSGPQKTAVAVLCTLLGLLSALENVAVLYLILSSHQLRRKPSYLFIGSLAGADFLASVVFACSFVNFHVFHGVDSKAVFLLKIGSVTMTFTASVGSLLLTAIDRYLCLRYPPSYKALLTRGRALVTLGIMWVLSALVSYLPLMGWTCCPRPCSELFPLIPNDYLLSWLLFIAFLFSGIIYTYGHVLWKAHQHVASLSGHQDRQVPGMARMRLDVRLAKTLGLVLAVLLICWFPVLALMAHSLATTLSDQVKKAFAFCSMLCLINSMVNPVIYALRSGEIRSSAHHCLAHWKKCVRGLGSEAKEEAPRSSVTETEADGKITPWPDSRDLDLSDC
rCB1 receptor, sequence (P20272 whole entry): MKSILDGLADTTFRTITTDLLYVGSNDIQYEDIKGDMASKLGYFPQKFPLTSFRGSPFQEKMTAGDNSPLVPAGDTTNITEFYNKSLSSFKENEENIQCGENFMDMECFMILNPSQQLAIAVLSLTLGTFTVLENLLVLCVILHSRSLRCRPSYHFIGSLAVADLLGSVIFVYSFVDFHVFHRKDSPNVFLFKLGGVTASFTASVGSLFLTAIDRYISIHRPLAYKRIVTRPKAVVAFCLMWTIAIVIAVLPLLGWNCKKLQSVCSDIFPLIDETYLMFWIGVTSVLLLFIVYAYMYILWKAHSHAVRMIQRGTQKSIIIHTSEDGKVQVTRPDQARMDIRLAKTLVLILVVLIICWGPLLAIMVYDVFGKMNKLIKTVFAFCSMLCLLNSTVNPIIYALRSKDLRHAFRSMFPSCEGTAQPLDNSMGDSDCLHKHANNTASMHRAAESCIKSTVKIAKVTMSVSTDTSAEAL

On to `C[C@H](/C=C\C/C=C\C/C=C\CCCC(=O)N[C@H](C)CO)/C=C\CCCCCBr` [Compound 15, (S,5Z,8Z,11Z,14Z)-20-Bromo-N-((R)-1-hydroxypropan-2-yl)-13-methylicosa-5,8,11,14-tetraenamide], for which, in assay [1], the Ki came out at 1.1 nM and the “increase in binding affinity for CB1 compared to lead AMG315” value (“increase in binding affinity for CB1” below) is 2–7 fold. This molecule also gave a Ki in [2] of 5.3 nM.
As to `CCCCC/C=C\[C@H](C)/C=C\C/C=C\C/C=C\CCCC(=O)N[C@H](C)CO` [AMG315, (R)-N-(1-Methyl-2-hydroxyethyl)-13-(S)-methyl-arachidonamide, reference compound], the Emax in assay [3] was 18%; in assay [4], 38%; in [5], 36%; in [6] it was 80.5%.
Regarding `Cc1c(C(=O)NN2CCCCC2)nn(-c2ccc(Cl)cc2Cl)c1-c1ccc(I)cc1` [AM251, 1-(2,4-dichlorophenyl)-5-(4-iodophenyl)-4-methyl-N-1-piperidinyl-1H-pyrazole-3-carboxamide, reference compound], in assay [7] (AM251 5 mg/kg i.p. before AM12814 1 mg/kg i.p.), the “effect of pretreatment on hypothermic effect of AM12814” value is given as “abolished”. For the same molecule, the “effect of pretreatment on AM12814-induced catalepsy in the ring test” value in [8] (AM251 5 mg/kg ip before AM12814 1 mg/kg ip) is “blocked”. Further, in [9] (AM251 5 mg/kg i.p. before AM12814 3 mg/kg i.p.), the “effect of pretreatment on tail-flick antinociception of AM12814” value is “reduced the overall antinociceptive efficacy”. For the same molecule, the “ipsilateral paw withdrawal thresholds, AM251-Veh vs Veh–Veh” value in assay [10] is reported as “modestly elevated”.
Turning to `C[C@H](/C=C\C/C=C\C/C=C\CCCC(=O)N[C@H](C)CO)/C=C\CCCCCO[N+](=O)[O-]` [Compound 16b, (S,6Z,9Z,12Z,15Z)-20-(((R)-1-Hydroxypropan-2-yl)amino)-8-methyl-20-oxoicosa-6,9,12,15-tetraen-1-yl Nitrate], in assay [1], the Ki turned out to be 1.7 nM and the “increase in binding affinity for CB1” value is 2–7 fold. This molecule also showed a Ki in [2] of 10.9 nM.
In the case of `C[C@H](/C=C\C/C=C\C/C=C\CCCC(=O)N[C@H](C)CO)/C=C\CCCCCF` [Compound 21, (S,5Z,8Z,11Z,14Z)-20-Fluoro-N-((R)-1-hydroxypropan-2-yl)-13-methylicosa-5,8,11,14-tetraenamide], in [1], the Ki worked out at 4.2 nM and the “increase in binding affinity for CB1” value was 2–7 fold. The molecule further gave a Ki in assay [2] of 22.2 nM.
In the case of `CCCCC/C=C\C/C=C\C/C=C\C/C=C\CCCC(=O)NCCO` [AEA, N-arachidonoylethanolamide, reference compound], the values for the Emax in assay [3] and in assay [5] were 27% and 36%, respectively.
For `C[C@H](/C=C\C/C=C\C/C=C\CCCC(=O)N[C@H](C)CO)/C=C\CCCCC(F)(F)F` [Compound 12, (S,5Z,8Z,11Z,14Z)-20,20,20-Trifluoro-N-((R)-1-hydroxypropan-2-yl)-13-methylicosa-5,8,11,14-tetraenamide], the Ki worked out at 0.7 nM in [1] and 3.4 nM in assay [2]. The “increase in binding affinity for CB1” value in [1] was 10 fold. Further, the EC50 in assay [3] was found to be 22 nM; in assay [5], 5.6 nM. For the same molecule, the maximal response (Emax) in [3] was found to be 29%; in [4] it was 22%; in assay [5], 28%; in [6] it was 67%. The “body temperature vs vehicle” value is “did not alter body temperature at any postinjection time point” in assay [7] (0.3 mg/kg), “reducing body temperature” in [7] (1 mg/kg) and “reducing body temperature” in [7] (3 mg/kg). In addition, the “earliest time of reduced body temperature postinjection” value in assay [7] (1 or 3 mg/kg) came to 10 min. Besides, the entries for the “immobility time in the ring test vs vehicle” value in assay [8] (0.3 mg/kg), in assay [8] (1 mg/kg) and in assay [8] (3 mg/kg) were “did not differ reliably from vehicle overall”, “increased immobility time” and “increased immobility time”, respectively. In addition, the “tail-flick latency in the tail-immersion test vs vehicle” value in assay [9] (1 mg/kg, i.p.) is given as “increased tail-flick latency”; in assay [9] (3 mg/kg, i.p.), “increased tail-flick latency”; in assay [9] (low dose, 0.1 mg/kg i.p.) it was “increased tail-flick latency”. Further, the “efficacy for the cyclase pathway relative to β-arrestin 2 recruitment in CB1” value in [6] (Emax cAMP vs Emax β-arrestin 2) is given as 3 fold. Moreover, the “hCB1 receptor cAMP Emax” value in [6] (normalized to maximum CP-55,940 = 100) is given as 67.5%. Also, in assay [2], the “higher affinity for CB2 than the lead compound AMG315” value was 52–80 fold.
`C[C@H](/C=C\C/C=C\C/C=C\CCCC(=O)N[C@H](C)CO)/C=C\CCCCCC#N` [Compound 16a, (S,5Z,8Z,11Z,14Z)-20-Cyano-N-((R)-1-hydroxypropan-2-yl)-13-methylicosa-5,8,11,14-tetraenamide]: in [1], the Ki is 1.4 nM and the “increase in binding affinity for CB1” value is 2–7 fold. Further, in [2], the Ki was found to be 2.2 nM and the “higher affinity for CB2 than the lead compound AMG315” value is 52–80 fold.
As to `C[C@H](/C=C\C/C=C\C/C=C\CCCC(=O)N[C@H](C)CO)/C=C\CCCCCO` [Compound 18, (S,5Z,8Z,11Z,14Z)-20-Hydroxy-N-((R)-1-hydroxypropan-2-yl)-13-methylicosa-5,8,11,14-tetraenamide], the Ki in assay [1] (read-out: rCB1 receptor Ki, rat brain membranes, [3H]CP-55,940, (± 95% CI)) amounted to 29 nM.

By Ki is commonly meant the dissociation constant of the complex between target and ligand, obtained from inhibition or displacement. What is called Emax is the size of the effect at its maximum, as opposed to the concentration needed. A word on the EC50: it is the concentration at which the effect is half-maximal. A higher EC50 goes with weaker potency.
